# Key:
# [1] = target: T1, Potassium voltage-gated channel subfamily A member 3 (Homo sapiens, UniProt P22001); type: cell-based, CHO-K1
# [2] = target: T1, Potassium voltage-gated channel subfamily A member 3; design: species or system Blood
# [3] = target: T1, Potassium voltage-gated channel subfamily A member 3; test: cell-based; design: species or system Blood
# T1 sequence (P22001 whole entry): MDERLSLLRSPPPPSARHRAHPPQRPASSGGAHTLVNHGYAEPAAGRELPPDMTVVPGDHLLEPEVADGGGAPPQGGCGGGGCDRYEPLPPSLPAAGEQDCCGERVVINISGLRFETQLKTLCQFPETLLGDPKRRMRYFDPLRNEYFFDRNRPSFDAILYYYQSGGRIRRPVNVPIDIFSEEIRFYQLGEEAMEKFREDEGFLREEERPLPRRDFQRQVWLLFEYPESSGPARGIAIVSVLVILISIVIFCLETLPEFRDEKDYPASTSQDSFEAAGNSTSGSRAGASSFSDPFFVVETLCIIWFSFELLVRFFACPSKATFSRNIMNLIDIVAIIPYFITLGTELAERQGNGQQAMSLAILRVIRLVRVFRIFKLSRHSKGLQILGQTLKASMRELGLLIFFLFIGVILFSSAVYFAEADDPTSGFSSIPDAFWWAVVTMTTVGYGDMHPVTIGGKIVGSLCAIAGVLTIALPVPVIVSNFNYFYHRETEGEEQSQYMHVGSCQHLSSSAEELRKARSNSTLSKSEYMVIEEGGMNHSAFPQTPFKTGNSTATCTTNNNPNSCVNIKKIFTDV
IC50 [1],IC50 [2],IC50 [3],Compound
> 3.33 nM,> 100 nM,> 100 nM,CC[C@H](C)[C@@H]1NC(=O)[C@@H](NC(=O)[C@H](CO)NC(=O)[C@@H](N)CCCNC(=N)N)CSSC[C@@H](C(=O)O)NC(=O)[C@H]([C@@H](C)O)NC(=O)CNC(=O)[C@@H]2CSSC[C@@H]3NC(=O)[C@H](CCC(N)=O)NC(=O)[C@H](Cc4ccccc4)NC(=O)[C@H](C)NC(=O)[C@H]([C@@H](C)O)NC(=O)[C@H](CSSC[C@H](NC(=O)[C@H](Cc4ccccc4)NC(=O)[C@H](CO)NC(=O)[C@H](CC(C)C)NC(=O)[C@H](CCCNC(=N)N)NC(=O)[C@H](Cc4ccc(O)cc4)NC(=O)[C@H](CCC(=O)O)NC(=O)[C@H](CCSC)NC(=O)[C@H](CO)NC(=O)[C@H](Cc4cnc[nH]4)NC(=O)[C@H](CCCCN)NC3=O)C(=O)N[C@@H](CCCNC(=N)N)C(=O)N[C@@H](CCCCN)C(=O)N[C@@H]([C@@H](C)O)C(=O)N2)NC(=O)[C@H](CCCNC(=N)N)NC(=O)[C@H](CO)NC(=O)[C@H](CCCCN)NC(=O)[C@@H]2CCCN2C(=O)[C@H]([C@@H](C)CC)NC(=O)[C@H]([C@@H](C)O)NC(=O)[C@H](CC(=O)O)NC1=O
> 3.33 nM,> 100 nM,> 100 nM,CC[C@H](C)[C@@H]1NC(=O)[C@@H](NC(=O)[C@H](CO)NC(=O)[C@@H](N)CCCNC(=N)N)CSSC[C@@H](C(=O)O)NC(=O)[C@H]([C@@H](C)O)NC(=O)CNC(=O)[C@@H]2CSSC[C@@H]3NC(=O)[C@H](CCC(N)=O)NC(=O)[C@H](Cc4ccccc4)NC(=O)[C@H](C)NC(=O)[C@H]([C@@H](C)O)NC(=O)[C@H](CSSC[C@H](NC(=O)[C@H](Cc4ccccc4)NC(=O)[C@H](CO)NC(=O)[C@H](CC(C)C)NC(=O)[C@H](CCCNC(=N)N)NC(=O)[C@H](Cc4ccc(O)cc4)NC(=O)[C@H](Cc4cccc5ccccc45)NC(=O)[C@H](CCSC)NC(=O)[C@H](CO)NC(=O)[C@H](Cc4cnc[nH]4)NC(=O)[C@H](CCCCN)NC3=O)C(=O)N[C@@H](CCCNC(=N)N)C(=O)N[C@@H](CCCCN)C(=O)N[C@@H]([C@@H](C)O)C(=O)N2)NC(=O)[C@H](CCCNC(=N)N)NC(=O)[C@H](CO)NC(=O)[C@H](CCCCN)NC(=O)[C@@H]2CCCN2C(=O)[C@H]([C@@H](C)CC)NC(=O)[C@H]([C@@H](C)O)NC(=O)[C@H](CC(=O)O)NC1=O
0.245 nM,0.678 nM,0.494 nM,CC[C@H](C)[C@@H]1NC(=O)[C@@H](NC(=O)[C@H](CO)NC(=O)[C@@H](N)CCCNC(=N)N)CSSC[C@@H](C(=O)O)NC(=O)[C@H]([C@@H](C)O)NC(=O)CNC(=O)[C@@H]2CSSC[C@@H]3NC(=O)[C@H](CCC(N)=O)NC(=O)[C@H](Cc4ccccc4)NC(=O)[C@H](C)NC(=O)[C@H]([C@@H](C)O)NC(=O)[C@H](CSSC[C@H](NC(=O)[C@H](Cc4ccccc4)NC(=O)[C@H](CO)NC(=O)[C@H](CCC(=O)O)NC(=O)[C@H](CCCNC(=N)N)NC(=O)[C@H](Cc4ccc(O)cc4)NC(=O)[C@H](CCCCN)NC(=O)[C@H](CCSC)NC(=O)[C@H](CO)NC(=O)[C@H](Cc4cnc[nH]4)NC(=O)[C@H](CCCCN)NC3=O)C(=O)N[C@@H](CCCNC(=N)N)C(=O)N[C@@H](CCCCN)C(=O)N[C@@H]([C@@H](C)O)C(=O)N2)NC(=O)[C@H](CCCNC(=N)N)NC(=O)[C@H](CO)NC(=O)[C@H](CCCCN)NC(=O)[C@@H]2CCCN2C(=O)[C@H]([C@@H](C)CC)NC(=O)[C@H]([C@@H](C)O)NC(=O)[C@H](CC(=O)O)NC1=O
> 3.33 nM,28.1 nM,18.5 nM,CC[C@H](C)[C@@H]1NC(=O)[C@@H](NC(=O)[C@H](CO)NC(=O)[C@@H](N)CCCNC(=N)N)CSSC[C@@H](C(=O)O)NC(=O)[C@H]([C@@H](C)O)NC(=O)CNC(=O)[C@@H]2CSSC[C@@H]3NC(=O)[C@H](CCC(N)=O)NC(=O)[C@H](Cc4ccccc4)NC(=O)[C@H](C)NC(=O)[C@H]([C@@H](C)O)NC(=O)[C@H](CSSC[C@H](NC(=O)[C@H](Cc4ccccc4)NC(=O)[C@H](CO)NC(=O)[C@H](CC(C)C)NC(=O)[C@H](CCCNC(=N)N)NC(=O)[C@H](Cc4ccc(O)cc4)NC(=O)[C@H](CCCCN)NC(=O)[C@H](CCC(=O)O)NC(=O)[C@H](CO)NC(=O)[C@H](Cc4cnc[nH]4)NC(=O)[C@H](CCCCN)NC3=O)C(=O)N[C@@H](CCCNC(=N)N)C(=O)N[C@@H](CCCCN)C(=O)N[C@@H]([C@@H](C)O)C(=O)N2)NC(=O)[C@H](CCCNC(=N)N)NC(=O)[C@H](CO)NC(=O)[C@H](CCCCN)NC(=O)[C@@H]2CCCN2C(=O)[C@H]([C@@H](C)CC)NC(=O)[C@H]([C@@H](C)O)NC(=O)[C@H](CC(=O)O)NC1=O

Compound,IC50 [1],IC50 [2],IC50 [3]
CC[C@H](C)[C@@H]1NC(=O)[C@@H](NC(=O)[C@H](CCCCN)NC(=O)[C@@H](N)CCCNC(=N)N)CSSC[C@@H](C(=O)O)NC(=O)[C@H]([C@@H](C)O)NC(=O)CNC(=O)[C@@H]2CSSC[C@@H]3NC(=O)[C@H](CCC(N)=O)NC(=O)[C@H](Cc4ccccc4)NC(=O)[C@H](C)NC(=O)[C@H]([C@@H](C)O)NC(=O)[C@H](CSSC[C@H](NC(=O)[C@H](Cc4ccccc4)NC(=O)[C@H](CO)NC(=O)[C@H](CC(C)C)NC(=O)[C@H](CCCNC(=N)N)NC(=O)[C@H](Cc4ccc(O)cc4)NC(=O)[C@H](CCCCN)NC(=O)[C@H](CCSC)NC(=O)[C@H](CO)NC(=O)[C@H](Cc4cnc[nH]4)NC(=O)[C@H](CCCCN)NC3=O)C(=O)N[C@@H](CCCNC(=N)N)C(=O)N[C@@H](CCCCN)C(=O)N[C@@H]([C@@H](C)O)C(=O)N2)NC(=O)[C@H](CCCNC(=N)N)NC(=O)[C@H](CO)NC(=O)[C@H](CCCCN)NC(=O)[C@@H]2CCCN2C(=O)[C@H]([C@@H](C)CC)NC(=O)[C@H]([C@@H](C)O)NC(=O)[C@H](CC(=O)O)NC1=O,0.146 nM,0.094 nM,0.099 nM
CCCC[C@@H]1NC(=O)[C@H](CO)NC(=O)[C@H](Cc2c[nH]cn2)NC(=O)[C@H](CCCCN)NC(=O)[C@@H]2CSSC[C@@H]3NC(=O)[C@H]([C@@H](C)O)NC(=O)[C@H](CCCCN)NC(=O)[C@H](CCCNC(=N)N)NC(=O)[C@H](CSSC[C@H](NC(=O)[C@H](CCCNC(=N)N)NC(=O)[C@H](CO)NC(=O)[C@H](CCCCN)NC(=O)[C@@H]4CCCN4C(=O)[C@H]([C@@H](C)CC)NC(=O)[C@H]([C@@H](C)O)NC(=O)[C@H](CC(=O)O)NC(=O)[C@H]([C@@H](C)CC)NC(=O)[C@@H](NC(=O)[C@H](CO)NC(=O)[C@@H](N)CCCNC(=N)N)CSSC[C@@H](C(=O)N[C@@H](C)C(=O)O)NC(=O)[C@H]([C@@H](C)O)NC(=O)CNC3=O)C(=O)N[C@@H]([C@@H](C)O)C(=O)N[C@@H](C)C(=O)N[C@@H](Cc3ccccc3)C(=O)N[C@@H](CCCCN)C(=O)N2)NC(=O)[C@H](Cc2ccccc2)NC(=O)[C@H](CO)NC(=O)[C@H](CC(C)C)NC(=O)[C@H](CCCNC(=N)N)NC(=O)[C@H](Cc2ccc(O)cc2)NC(=O)[C@H](CCCCN)NC1=O,0.071 nM,0.515 nM,0.305 nM
